Test results from ChEMBL document CHEMBL1201862, “PubChem BioAssay data set” (2004).
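Method: 48-hour compound exposure of cells in 96-well plates, five concentrations, linear interpolation of endpoints. GI50 = concentration required for 50% inhibition of growth.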 The source made the active and inactive calls. Cut-off read from the data, not from the text of the source: active = GI50 up to about 1.1 µM and inactive = higher. Starred links: 1 amine or outer side, 2 acyl side, 3 side chain; linkers in the order of their positions; H or OH if unused. Non-standard residues stand in square brackets, D forms with d. Residues, ends and D or L forms follow the SMILES beside them. ξ: configuration not given here. Ile(3ξ) = CCC(C)[C@H](N)C(=O)O; X35 = C=CCC(O[*:1])C(=O)[*:2]; NMeV = CN[C@H](C(=O)O)C(C)C; NMeA = CN[C@@H](C)C(=O)O; βAla = NCCC(=O)O

How the values were obtained:
Test in all cases: NCI anticancer screen, dose series, 48 h
HCT-15 = test system: HCT-15
SN12C = test system: SN12C
RPMI-8226 = test system: RPMI-8226
LOX IMVI = test system: LOX IMVI
CCRF-CEM = test system: CCRF-CEM
DLD-1 = test system: DLD-1
SK-MEL-2 = test system: SK-MEL-2
UACC-62 = test system: UACC-62
RXF 631 = test system: RXF 631
HT-29 = test system: HT-29
NCI-H226 = test system: NCI-H226
SF-295 = test system: SF-295
UO-31 = test system: UO-31
ACHN = test system: ACHN
K562 = test system: K562
M19-MEL = test system: M19-MEL
SK-MEL-28 = test system: SK-MEL-28
SNB-19 = test system: SNB-19
NCI-H522 = test system: NCI-H522
HCC 2998 = test system: HCC 2998
DMS-114 = test system: DMS-114
SR = test system: SR
U-251 = test system: U-251
786-0 = test system: 786-0
LXFL 529 = test system: LXFL 529
HL-60 = test system: HL-60
SK-OV-3 = test system: SK-OV-3
KM-20L2 = test system: KM-20L2
NCI-H23 = test system: NCI-H23
SF-268 = test system: SF-268
IGROV-1 = test system: IGROV-1
COLO 205 = test system: COLO 205
CAKI-1 = test system: CAKI-1
HOP-18 = test system: HOP-18
Malme-3M = test system: Malme-3M
OVCAR-8 = test system: OVCAR-8
OVCAR-3 = test system: OVCAR-3
NCI-H460 = test system: NCI-H460
RXF 393 = test system: RXF 393
OVCAR-4 = test system: OVCAR-4
SNB-75 = test system: SNB-75
A498 = test system: A498
DMS-273 = test system: DMS-273
TK-10 = test system: TK-10
SW-620 = test system: SW-620
M14 = test system: M14
UACC-257 = test system: UACC-257
SK-MEL-5 = test system: SK-MEL-5
MOLT-4 = test system: MOLT-4
A549 = test system: A549
SF-539 = test system: SF-539
SNB-78 = test system: SNB-78
EKVX = test system: EKVX
HCT-116 = test system: HCT-116
KM12 = test system: KM12
OVCAR-5 = test system: OVCAR-5
HOP-92 = test system: HOP-92
XF498 = test system: XF498
HOP-62 = test system: HOP-62

In the case of `CC(=O)OC1CC2C(C)(C)C(=O)C=C[C@]2(C)C2CCC3(C)C(=CCC3[C@H](CO)C[C@H](O)C(=O)C(C)(C)O)[C@]12C` (stereo partly drawn), the GI50 (HCT-15) is reported as 17.8 µM, the GI50 (SN12C) is reported as 26.4 µM (inactive) and the GI50 (RPMI-8226) is reported as 22.3 µM (inactive). The GI50 (LOX IMVI) was 18.2 µM (inactive), the GI50 (CCRF-CEM) was 17.9 µM (inactive) and the GI50 (DLD-1) was 14.9 µM (inactive). The GI50 (SK-MEL-2) was 20.7 µM (inactive), the GI50 (UACC-62) was 14.2 µM (inactive) and the GI50 (RXF 631) was 30.5 µM (inactive). For the same molecule, the GI50 (HT-29) was 13.8 µM (inactive), the GI50 (NCI-H226) was 20.6 µM (inactive) and the GI50 (SF-295) was 12.9 µM (inactive). For the same molecule, the GI50 (UO-31) was 23.7 µM (inactive), the GI50 (ACHN) was 17.3 µM (inactive) and the GI50 (K562) was 27 µM (inactive). For the same molecule, the GI50 (M19-MEL) was 35.8 µM (inactive), the GI50 (SK-MEL-28) was 19.4 µM (inactive) and the GI50 (SNB-19) was 31.7 µM (inactive). For the same molecule, the GI50 (NCI-H522) was 23.6 µM (inactive), the GI50 (HCC 2998) was 18.1 µM (inactive) and the GI50 (DMS-114) was 33.9 µM (inactive). For the same molecule, the GI50 (SR) was 25.4 µM (inactive), the GI50 (U-251) was 16.7 µM (inactive) and the GI50 (786-0) was 19.7 µM (inactive). The GI50 (LXFL 529) was 42.4 µM (inactive), the GI50 (HL-60) was 19.5 µM (inactive) and the GI50 (SK-OV-3) was 13.7 µM (inactive). The GI50 (KM-20L2) was 13.6 µM (inactive), the GI50 (NCI-H23) was > 10 µM (inactive) and the GI50 (SF-268) was 25.9 µM (inactive). The GI50 (IGROV-1) was 21.5 µM (inactive), the GI50 (COLO 205) was 42.1 µM (inactive) and the GI50 (CAKI-1) was 15.9 µM (inactive). The GI50 (HOP-18) was 54.1 µM (inactive), the GI50 (Malme-3M) was 14.7 µM (inactive) and the GI50 (OVCAR-8) was 17.3 µM (inactive). The GI50 (OVCAR-3) was 19.5 µM (inactive), the GI50 (NCI-H460) was 16.6 µM (inactive) and the GI50 (RXF 393) was 16.5 µM (inactive). The GI50 (OVCAR-4) was 59.8 µM (inactive), the GI50 (SNB-75) was 24.3 µM (inactive) and the GI50 (A498) was 16.4 µM (inactive). For the same molecule, the GI50 (DMS-273) was 30.9 µM (inactive), the GI50 (TK-10) was 26.5 µM (inactive) and the GI50 (SW-620) was 21.1 µM (inactive). The GI50 (M14) was 21.7 µM (inactive), the GI50 (UACC-257) was 14.5 µM (inactive) and the GI50 (SK-MEL-5) was 19 µM (inactive). The GI50 (MOLT-4) was 22.6 µM (inactive), the GI50 (A549) was 24.2 µM (inactive) and the GI50 (SF-539) was 18.7 µM (inactive). The GI50 (SNB-78) was 76.4 µM (inactive), the GI50 (EKVX) was 20.3 µM (inactive) and the GI50 (HCT-116) was 30.3 µM (inactive). The GI50 (KM12) was 19.1 µM (inactive) and the GI50 (OVCAR-5) was 31 µM (inactive).

For `C=CCC1OC(=O)CCNC(=O)[C@H](C)N(C)C(=O)[C@H](C(C)C)N(C)C(=O)[C@H](C(C)CC)NC(=O)[C@@H]2CCCN2C1=O` (stereo partly drawn) (cyclo([Ile(3ξ)][NMeV][NMeA][βAla][X35]P)), the GI50 (HCT-15) was 23 µM, the GI50 (SN12C) was 11.5 µM (inactive) and the GI50 (RPMI-8226) was 4.91 µM (inactive). For the same molecule, the GI50 (HOP-92) was 8.93 µM (inactive), the GI50 (LOX IMVI) was 9.16 µM (inactive) and the GI50 (CCRF-CEM) was 3.62 µM (inactive). The GI50 (DLD-1) was 10.4 µM (inactive), the GI50 (SK-MEL-2) was 3.13 µM (inactive) and the GI50 (UACC-62) was 4.08 µM (inactive). For the same molecule, the GI50 (RXF 631) was 4.92 µM (inactive), the GI50 (XF498) was 3.65 µM (inactive) and the GI50 (HT-29) was 2.99 µM (inactive). The GI50 (NCI-H226) was 7.55 µM (inactive), the GI50 (SF-295) was 4.41 µM (inactive) and the GI50 (UO-31) was 33 µM (inactive). The GI50 (ACHN) was 27.9 µM (inactive), the GI50 (K562) was 5 µM (inactive) and the GI50 (M19-MEL) was 5.96 µM (inactive). The GI50 (SK-MEL-28) was 33.8 µM (inactive), the GI50 (SNB-19) was > 39.4 µM (inactive) and the GI50 (HCC 2998) was 5.31 µM (inactive). The GI50 (DMS-114) was 7.5 µM (inactive), the GI50 (SR) was 4.95 µM (inactive) and the GI50 (U-251) was > 53 µM (inactive). The GI50 (786-0) was 5.58 µM (inactive), the GI50 (LXFL 529) was 3.94 µM (inactive) and the GI50 (HL-60) was 3.39 µM (inactive). For the same molecule, the GI50 (SK-OV-3) was 99.1 µM (inactive), the GI50 (KM-20L2) was 3.18 µM (inactive) and the GI50 (NCI-H23) was 26.7 µM (inactive). The GI50 (SF-268) was 4.12 µM (inactive), the GI50 (IGROV-1) was 33.6 µM (inactive) and the GI50 (COLO 205) was 5.14 µM (inactive). For the same molecule, the GI50 (CAKI-1) was 8.93 µM (inactive), the GI50 (Malme-3M) was 3.28 µM (inactive) and the GI50 (OVCAR-8) was 16.2 µM (inactive). The GI50 (OVCAR-3) was 13.3 µM (inactive), the GI50 (NCI-H460) was 4.94 µM (inactive) and the GI50 (RXF 393) was > 100 µM (inactive). For the same molecule, the GI50 (OVCAR-4) was 6.75 µM (inactive), the GI50 (SNB-75) was > 21.1 µM (inactive) and the GI50 (A498) was > 71.6 µM (inactive). For the same molecule, the GI50 (HOP-62) was 4.09 µM (inactive), the GI50 (DMS-273) was 3.63 µM (inactive) and the GI50 (TK-10) was > 38.3 µM (inactive). For the same molecule, the GI50 (SW-620) was 5.07 µM (inactive), the GI50 (M14) was 2.61 µM (inactive) and the GI50 (UACC-257) was 4.71 µM (inactive). For the same molecule, the GI50 (SK-MEL-5) was 2.97 µM (inactive), the GI50 (MOLT-4) was 3.57 µM (inactive) and the GI50 (A549) was 9.08 µM (inactive). For the same molecule, the GI50 (SF-539) was 10.1 µM (inactive), the GI50 (SNB-78) was > 100 µM (inactive) and the GI50 (EKVX) was > 100 µM (inactive). For the same molecule, the GI50 (HCT-116) was 3.94 µM (inactive), the GI50 (KM12) was 8.43 µM (inactive) and the GI50 (OVCAR-5) was 13.6 µM (inactive).
